Like-named read-outs stand apart in the source and are kept apart here.

The nature of data set [1]: Plasma protein binding assay (rapid equilibrium dialysis), human plasma. The format is in vitro ADME. The note with it: fraction bound, read-out: plasma protein binding Fb human (converted). On the procedure:
(§1) Test compound (10 μM) was incubated at 37 °C for 4 h with mouse, rat, or human plasma (Biowest) in the donor well of a rapid equilibrium dialysis plate (Thermo Fisher Scientific). PBS was placed in the acceptor well. To stop the assay, samples were collected from both wells, and an equal volume of plasma was added to the PBS sample, and vice versa. Proteins were then precipitated by adding three volumes of ice-cold methanol. Samples were mixed gently, kept at −20 °C for 30 min, and then stored at 4 °C overnight. The next day, the samples were centrifuged, and the supernatants were diluted with four volumes of 30% methanol in water. The samples were then analyzed using the Echo-MS system (SCIEX) with MRM transition monitoring, except for compound 3af, which was analyzed by LC–MS/MS as described in the plasma stability assay.

Data set [2] can be described thus: Plasma protein binding assay (rapid equilibrium dialysis), mouse plasma. The data set is classed as in vitro ADME. The note with it: fraction bound, read-out: plasma protein binding Fb mouse (converted). On the procedure: as §1
In general terms: In equilibrium dialysis free small molecules cross a membrane that holds back macromolecules.

Data set [3] concerns the target T1, human galectin-1 (Gal-1, full length) (Homo sapiens, UniProt P09382).
T1 construct: Gal-1 is a prototype galectin consisting of a single CRD and was used in full length; 6xHis tag with TEV protease site (N, cleaved yes); made in house; host or cells: BL21 Escherichia coli (pET-15b)
Description: Competitive fluorescence polarization assay, Gal-1. The data set is classed as binding. Put shortly: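 Competitive fluorescence polarization (anisotropy) with a fluorescent probe; full-length Gal-1 and C-terminal CRD construct of Gal-3. Read after 30–60 min incubation at 25 °C. Kd fitted with Wang's exact cubic competitive model, rmin/rmax fixed from direct binding.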
A general note: Polarisation of emitted light reports the rotation of a fluorescent probe.

Data set [4] in a line: Cytotoxicity assay, HEK293. The data set is classed as cell-based. The conditions noted are these: human, HEK293 cells, viability dye, flow cytometry. On the procedure: (§2) To evaluate in vitro cytotoxicity and support its potential application in inflammatory and fibrotic disease models, the following panel of cell lines, representing the relevant biological systems, was used: HEK293, HepG2, THP1, Jurkat E6.1, and LX2. HEK293, HepG2, and Jurkat E6.1 cells were seeded at 400,000 cells/mL, THP1 cells at 500,000 cells/mL, and LX2 cells at 200,000 cells/mL in 96-well plates (cell culture-treated, VWR) in 100 μL/well. Cells were treated with the tested compounds in a serial dilution (300, 100, 33.3, 11.1, and 3.7 μM) for 24 h. Untreated cells served as negative controls to establish the baseline viability threshold. Cell viability was assessed using a viability dye (Zombie Violet Fixable Viability Kit, BioLegend) following the manufacturer’s instructions and analyzed by flow cytometry (see below).
(§3) Cells or beads from screening assays prepared for flow cytometry were analyzed by the CytoFlex S instrument (Beckman Coulter). Data acquisition was performed using CytExpert software (v2.5, Beckman Coulter). Debris was excluded by forward and side scatter gating, followed by doublet exclusion. Data were analyzed using FlowJo software (v10, BD Biosciences).
(A flow cytometer gives signals particle by particle.)

Data set [5] in a line: Plasma stability assay, mouse plasma. The conditions noted are these: 37 °C. The format is in vitro ADME. As to the method: Test compounds (10 μM) were incubated with mouse, rat, or human pooled plasma from 50 donors (Biowest) at 37 °C for 20, 60, and 120 min. Reactions were terminated by adding four volumes of ice-cold methanol, followed by vigorous mixing. Samples were kept at −20 °C for 30 min and then stored at 4 °C overnight. The next day, samples were centrifuged, and supernatants were diluted with four volumes of 30% methanol in water. Zero time points were prepared by adding ice-cold methanol to the compound prior to the addition of plasma. Samples were then analyzed on an Echo MS system (SCIEX) using multiple reaction monitoring (MRM). The only exception was compound 3af, which was analyzed by LC–MS/MS (SCIEX 6500 triple quadrupole) due to its weak ionization in Echo-MS.

The nature of data set [6]: Cytotoxicity assay, HepG2. The format is cell-based. The note with it: human, HepG2 cells, viability dye, flow cytometry. As to the method:
as §2, §3

The next data set in a line: Cytotoxicity assay, LX2. The data set is classed as cell-based. The conditions noted are these: human, LX2 cells, viability dye, flow cytometry. On the procedure: as §2, §3
The nature of data set [7]: Kinetic solubility assay in PBS. The data set is classed as physicochemical. The note with it: aqueous buffer, kinetic from dmso stock; PBS at pH 7.4, 100 μM final, 2 h room temperature. On the procedure:
The solutions were incubated at room temperature for 2 h and filtered by centrifugation. Filtrates were diluted 100-fold with 50% acetonitrile in water and then analyzed on the Echo-MS system (SCIEX) using MRM transition monitoring, except for compound 3af, which was analyzed by LC–MS/MS as described in the plasma stability assay. Compound concentrations were quantified against calibration curves prepared in the identical matrix as the samples.

T1 sequence (P09382 2-135): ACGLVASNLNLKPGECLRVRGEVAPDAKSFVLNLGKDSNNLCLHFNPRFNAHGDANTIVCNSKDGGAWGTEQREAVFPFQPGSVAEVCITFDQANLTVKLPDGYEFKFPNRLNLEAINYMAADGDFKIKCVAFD

For the compound `CC(=O)N(c1cc(C(=O)O)cc2[nH]ccc12)[C@@H]1O[C@H](CO)[C@@H](S[C@@H]2O[C@H](CO)[C@H](O)[C@H](n3cc(-c4cccc(F)c4)nn3)[C@H]2O)[C@H](O)[C@H]1O` [Compound 11, N-[4-S-(3-Deoxy-3-(4-(3-fluorophenyl)-1H-1,2,3-triazol-1-yl)-β-D-galactopyranosyl)-4-thio-β-D-glucopyranosyl]-N-(6-carboxy-1H-indol-4-yl)acetamide], the fraction unbound at 4 h, 10 μM in data set [1] is 0.55; in data set [2], 0.57. Further, the IC50 came out at 4.34 µM in data set [3] (CSV supplement, unrounded mean, read-out: Gal1_IC50_mean_uM) and 4.3 ± 0.2 µM in data set [3] (four-parameter logistic model, mean ± SD, read-out: IC50 Gal-1). In addition, the Kd turned out to be 2.18 µM in data set [3] (CSV supplement, unrounded mean, read-out: Gal1_Kd_mean_uM) and 2.2 ± 0.3 µM in data set [3] (competitive fluorescence polarization, mean ± SD, read-out: Kd Gal-1). Further, the cytotoxic concentration (CC50) (usually the concentration that lowers cell viability or growth by half) at 24 h in data set [4] was above 300 µM; in data set [6], above 300 µM; in “Cytotoxicity assay, LX2”, above 300 µM. For the same compound, the share remaining – broadly, what is left of the initial amount, in per cent – at 2 h, 10 μM in data set [5] was found to be 100 ± 3%. Moreover, the solubility (kinetic) (usually solubility judged after dilution from a stock solution rather than from solid) at 2 h in data set [7] is above 100 µM.

The values are drawn from publication PMC12670426 (Journal of Medicinal Chemistry, 2025).
